This note sets out measurements from patent US20260176290A1, “INHIBITORS OF KRAS(G12D)” (Ranok Therapeutics (Hangzhou) Co. Ltd., priority 2022, published 2026).

The target of series [1] is T1, KRAS (G12D)/SOS1 (Homo sapiens, UniProt P01116, G12D).
T1 construct: purchased Cisbio 63ADK000CB17PEH
The experiment in a line: KRAS (G12D)/SOS1 homogeneous time-resolved fluorescence (HTRF) assay. It counts as binding. To be noted: absence of GTP, 4° C. for 3 hr. The procedure: 3-fold serial dilutions of each test compound were prepared ranging from 20 μM to 1.02 nM. The test compound was mixed and incubated with reaction components, incubated in a sealed plate at 4° C. for 3 hr and fluorescence was measured using a PerkinElmer Envision plate reader. […]

The subject of series [2] is AGS gastric carcinoma cells [heterozygous G12D]. The experiment in a line: Cancer cell line proliferation (CellTiter-Glo), AGS. It counts as cell-based. As to conditions: Homo sapiens, 72 hr, read-out: CTG(IC50), ABS-72 H(nM) AGS. The procedure:
(§1) The following cancer cell lines were employed: AGS gastric carcinoma [heterozygous G12D] (ATCC, CRL-1739); A-427 lung carcinoma [heterozygous G12D] (ATCC, HTB-53); ASPC1 pancreatic adenocarcinoma [homozygous G12D] (ATCC, CRL-1682) and SW1990 pancreatic adenocarcinoma [homozygous G12D] (ATCC CRL-2172). Cell lines were cultured essentially according to ATCC recommendations.
(§2) AGS, A-427, ASPC1, SW1990, and GP2D cells were plated in 96-well tissue culture plates at 4,000 cells/well and incubated at 37° C./5% CO2 for 72 hr in 100 μl of media. 3-fold serial dilutions of each test compound were prepared ranging from 20 μM to 1.02 nM. Each cell line was then treated with test compounds at various concentrations with a final concentration of 0.5% DMSO/well, and then incubated at 37° C./5% CO2 for 72 hr. 100 μl of CellTiter-Glo® Reagent (Promega Corporation, Madison, WI) was added to each well and processed according manufacturer's protocol. Results were analyzed and IC50 5 values were calculated in GraphPad 7 software.
(Cellular ATP, detected with luciferase, serves as a proxy for viable cell number.)

Series [3] has as its system A-427 lung carcinoma cells [heterozygous G12D]. The experiment in a line: Cancer cell line proliferation (CellTiter-Glo), A-427. It counts as cell-based. To be noted: Homo sapiens, A427 cells, 72 hr, read-out: CTG(IC50), ABS-72 H(nM) A427. The procedure:
as §1, §2

Series [4] relates to ASPC1 pancreatic adenocarcinoma cells [homozygous G12D]. The experiment in a line: Cancer cell line proliferation (CellTiter-Glo), ASPC1. As to conditions: Homo sapiens, ASPC-1 cells, 72 hr, read-out: CTG(IC50), ABS-72 H(nM) ASPC-1. It counts as cell-based. The procedure: as §1, §2
In series [5] the test system is SW1990 pancreatic adenocarcinoma cells [homozygous G12D]. The experiment in a line: Cancer cell line proliferation (CellTiter-Glo), SW1990. The series is classed as cell-based. As to conditions: Homo sapiens, 72 hr, read-out: CTG(IC50), ABS-72 H(nM) SW1990. The protocol: as §1, §2
Series [6] can be described thus: Oral bioavailability in CD-1 mice. To be noted: male, CD-1, mouse, blood.
Experimental: CD-1 mice were randomly assigned to 6 groups with 3 male mice in each compound group. […] Compounds were orally administered (PO) in a single dose to each mouse in its group. Blood samples were taken within 72 hours. Bioavailability (F %) was determined and by liquid chromatography-mass spectrometry (LC-MS/MS).

Bounds are passed on as bounds.

T1 sequence (P01116 1-188 isoform P01116-2 G12D): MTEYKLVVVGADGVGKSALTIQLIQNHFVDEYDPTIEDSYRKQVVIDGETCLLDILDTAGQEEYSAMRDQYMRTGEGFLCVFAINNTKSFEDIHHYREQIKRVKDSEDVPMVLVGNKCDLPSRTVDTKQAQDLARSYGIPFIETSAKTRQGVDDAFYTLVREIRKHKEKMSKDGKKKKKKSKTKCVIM

Regarding `C#Cc1c(F)ccc2cc(O)cc(-c3nc(OC)c4c(N5CC6CCC(C5)N6)nc(OCC5(CN6CCC7CC76)CC5)nc4c3F)c12` (centres unmarked) [Example 43], the IC50 in series [1] is under 100 nM; in series [2], under 100 nM; in series [3], 100 to 1000 nM; in series [4], under 100 nM; in series [5] it was under 100 nM. Moreover, the bioavailability in series [6] is 2.37%.

Take `C#Cc1c(F)ccc2cc(O)cc(-c3nc(OC)c4c(N5CC6CCC(C5)N6)nc(OCC5(CN6CCC6)CC5)nc4c3F)c12` [Ref. 2, reference compound]: the IC50 in series [1] was under 100 nM; in series [2] it was under 100 nM; in series [4] it was 100 to 1000 nM; in series [5], 100 to 1000 nM. The molecule further showed a bioavailability in series [6] (25 mg/kg) of 0.15%.

With `C#Cc1c(F)ccc2cc(O)cc(-c3ncc4c(N5CC6CCC(C5)N6)nc(OCC5(CN6CCC(F)CC6)CC5)nc4c3F)c12` [Example 1, 4-(4-(3,8-diazabicyclo[3.2.1]octan-3-yl)-8-fluoro-2-((1-((4-fluoropiperidin-1-yl)methyl)cyclopropyl)methoxy)pyrido[4,3-d]pyrimidin-7-yl)-5-ethynyl-6-fluoronaphthalen-2-ol], the IC50 in series [1], in series [2], in series [3], in series [4] and in series [5] was under 100 nM each time. The molecule also yielded a bioavailability in series [6] (25 mg/kg) of 0.8%.

In the case of `C#Cc1c(F)ccc2cc(O)cc(-c3ncc4c(N5CC6CCC(C5)N6)nc(OCC5(CN6CC7C(C#N)C7C6)CC5)nc4c3F)c12` (centres unmarked) [Example 44], the IC50 in series [1] is under 100 nM; in series [2] it was under 100 nM; in series [3], 100 to 1000 nM; in series [4], under 100 nM; in series [5], under 100 nM. The molecule further yielded a bioavailability in series [6] of 2.38%.

Turning to `C#Cc1c(F)ccc2cc(O)cc(-c3nc(OC)c4c(N5CC6CCC(C5)N6)nc(OCC5(CN6CCC(C#N)C6)CC5)nc4c3F)c12` (centres unmarked) [Example 38], the 50% inhibitory concentration (IC50) in series [1], in series [2], in series [4] and in series [5] was under 100 nM each time. This molecule also yielded a bioavailability in series [6] of 1.8%.

In the case of `C#Cc1c(F)ccc2cc(O)cc(-c3nc(OC)c4c(N5CC6CCC(C5)N6)nc(OCC5(CN6CCC(F)CC6)CC5)nc4c3F)c12` [Example 19], the half-maximal inhibitory concentration (IC50) in series [1], in series [2], in series [3], in series [4] and in series [5] was under 100 nM throughout. Further, the bioavailability in series [6] worked out at 9.39%.

Turning to `C#Cc1c(F)ccc2cc(O)cc(-c3nc(OC)c4c(N5CC6CCC(C5)N6)nc(OCC5(CN6CC7C(C#N)C7C6)CC5)nc4c3F)c12` (centres unmarked) [Example 51], the 50% inhibitory concentration (IC50) in series [1], in series [2], in series [4] and in series [5] was under 100 nM in each case. In series [6], this molecule had a bioavailability of 2.3%.

As for `C#Cc1c(F)ccc2cc(O)cc(-c3ncc4c(N5CC6CCC(C5)N6C(=O)OC(C)OC(C)=O)nc(OCC5(CN6CCC(F)CC6)CC5)nc4c3F)c12` (centres unmarked) [Example 52], the IC50 was under 100 nM in series [1]; under 100 nM in series [2]; 100 to 1000 nM in series [3]; under 100 nM in series [4]; under 100 nM in series [5].

Consider `C#Cc1c(F)ccc2cc(O)cc(-c3nc(OC(C)C)c4c(N5CC6CCC(C5)N6)nc(OCC5(CN6CCC(C(F)(F)F)CC6)CC5)nc4c3F)c12` [Example 29], for which the IC50 was under 100 nM in series [1]; under 100 nM in series [2]; 100 to 1000 nM in series [3]; under 100 nM in series [4]; under 100 nM in series [5].

Consider `C#Cc1c(F)ccc2cc(O)cc(-c3nc(OC)c4c(N5CC6CCC(C5)N6)nc(OCC5(CN6CCOCC6)CC5)nc4c3F)c12` [Example 33], for which the IC50 in series [1] was under 100 nM; in series [2], under 100 nM; in series [3], 100 to 1000 nM; in series [4], under 100 nM; in series [5] it was under 100 nM.

On to `C#Cc1c(F)ccc2cc(O)cc(-c3ncc4c(N5CC6CCC(C5)N6)nc(OCC5(CN6CCC(S(=O)(=O)N(C)C)CC6)CC5)nc4c3F)c12` [Example 25], for which the IC50 in series [1] was under 100 nM; in series [2], under 100 nM; in series [3] it was over 1000 nM; in series [4], 100 to 1000 nM; in series [5] it was 100 to 1000 nM.

`C#Cc1c(F)ccc2cc(O)cc(-c3nc(OC)c4c(N5CC6CCC(C5)N6)nc(OCC5(CN6CCC(C(F)(F)F)CC6)CC5)nc4c3F)c12` [Example 3]: the IC50 in series [1], in series [2], in series [3], in series [4] and in series [5] was under 100 nM in each case.

`C#Cc1c(F)ccc2cc(O)cc(-c3nc(C)c4c(N5CC6CCC(C5)N6)nc(OCC5(CN6CCC(C(F)(F)F)CC6)CC5)nc4c3F)c12` [Example 39]: the IC50 in series [1] was under 100 nM; in series [2], under 100 nM; in series [3], 100 to 1000 nM; in series [4], under 100 nM; in series [5] it was under 100 nM.

For the molecule `C#Cc1c(F)ccc2cc(O)cc(-c3nc(OC)c4c(N5CC6CCC(C5)N6)nc(OCC5(CN6CC7C(C6)C7(F)F)CC5)nc4c3F)c12` (centres unmarked) [Example 49], the IC50 in series [1], in series [2], in series [4] and in series [5] was under 100 nM in each case. Besides, the bioavailability in series [6] was found to be 3.82%.

As for `C#Cc1c(F)ccc2cc(O)cc(-c3nc(OC)c4c(N5CC6CCC(C5)N6)nc(OCC5(CN(C)C)CC5)nc4c3F)c12` [Ref. 4, reference compound], the IC50 in series [2] is under 100 nM. For the same molecule, the bioavailability in series [6] came out at 0.23%.

On to `C#Cc1c(F)ccc2cc(O)cc(-c3ncc4c(N5CC6CCC(C5)N6)nc(OCC5(CN6CCC7(CC6)OCCO7)CC5)nc4c3F)c12` [Example 24], for which the IC50 in series [1] is under 100 nM; in series [2] it was under 100 nM; in series [3], 100 to 1000 nM; in series [4], over 1000 nM; in series [5], under 100 nM.

Regarding `C#Cc1c(F)ccc2cc(O)cc(-c3nc(OC(F)F)c4c(N5CC6CCC(C5)N6)nc(OCC5(CN6CCC(C(F)(F)F)CC6)CC5)nc4c3F)c12` [Example 32], the half-inhibitory concentration (IC50) in series [1] was under 100 nM; in series [2], under 100 nM; in series [3], 100 to 1000 nM; in series [4] it was 100 to 1000 nM; in series [5] it was under 100 nM.

Regarding `C#Cc1c(F)ccc2cc(O)cc(-c3nc(OC4CC4)c4c(N5CC6CCC(C5)N6)nc(OCC5(CN6CC7CC7C6)CC5)nc4c3F)c12` (centres unmarked) [Example 40], the concentration for half-maximal inhibition (IC50) was under 100 nM in series [1]; under 100 nM in series [2]; 100 to 1000 nM in series [3]; under 100 nM in series [4]; under 100 nM in series [5].

On to `[2H]C([2H])([2H])Oc1nc(-c2cc(O)cc3ccc(F)c(C#C)c23)c(F)c2nc(OCC3(CN4CCC(C(F)(F)F)CC4)CC3)nc(N3CC4CCC(C3)N4)c12` [Example 30], for which the half-inhibitory concentration (IC50) in series [1], in series [2], in series [3], in series [4] and in series [5] was under 100 nM throughout.

On to `C#Cc1c(F)ccc2cc(O)cc(-c3nc(OC)c4c(N5CC6CCC(C5)N6)nc(OCC5(CN6CCCC6)CC5)nc4c3F)c12` [Ref. 3, reference compound], for which the IC50 in series [2] was under 100 nM. The bioavailability in series [6] was 0.23%.

`C#Cc1c(F)ccc2cc(O)cc(-c3ncc4c(N5CC6CCC(C5)N6)nc(OCC5(CN6CC7CC7(C#N)C6)CC5)nc4c3F)c12` (centres unmarked) [Example 21]: the IC50 was under 100 nM in series [1]; under 100 nM in series [2]; 100 to 1000 nM in series [3]; 100 to 1000 nM in series [4]; under 100 nM in series [5].

As for `C#Cc1c(F)ccc2cc(O)cc(-c3ncc4c(N5CC6CCC(C5)N6)nc(OCC(=C)CN5CCC(F)CC5)nc4c3F)c12` [Example 27], the IC50 in series [1] was under 100 nM; in series [2] it was under 100 nM; in series [3] it was 100 to 1000 nM; in series [4], 100 to 1000 nM; in series [5], under 100 nM.

As for `C#Cc1c(F)ccc2cc(O)cc(-c3nc(OC)c4c(N5CC6CCC(C5)N6)nc(OCC5(CN6CC7C(C6)C7C(F)(F)F)CC5)nc4c3F)c12` (centres unmarked) [Example 41], the IC50 was under 100 nM in series [1]; under 100 nM in series [2]; 100 to 1000 nM in series [3]; under 100 nM in series [4]; under 100 nM in series [5].

The term IC50 denotes the concentration needed to halve the response being measured. As a reminder, the bioavailability is the share of a dose that reaches the circulation, judged against a reference dose that is usually intravenous. A low value points to little systemic uptake.
